Experimental data reported in patent US20240398771A1, “TREATMENT OF SCLERODERMA AND RAYNAUD'S SYNDROME” (Aisa Pharma, Inc., priority 2023, published 2024).

Key:
[1] = oral dosing; cited from earlier work
participants with SSc-RP [2] = assay: Frequency of weekly RP attacks, all attacks (patient diary; primary endpoint); type: in vivo, human; conditions: for Weekly RP Attacks (All Attacks), Max / Weekly RP Attacks (All Attacks), Min / Weekly RP Attacks (All Attacks), Q1 / Weekly RP Attacks (All Attacks), Q3: last 7 days of dosing period
Experimental: Part A—Double-blind, Placebo-controlled, Parallel-group, Dose selection, will assess the safety and efficacy of two doses of cilnidipine (10 mg and 20 mg), alone and in combination with tadalafil. A total of 36 participants will be randomized to one of six pre-specified treatment arms. See Example 3 for data obtained in this phase of the study thus far, on 11 participants.
Please refer to FIG. 1 for treatment arms in Part A of the study. Dosing lasted or will last for 12 (±2) days in which participants self-administered or will self-administer daily doses of assigned treatment in the morning. Each participant took or will take one capsule and one tablet to blind the active therapy being received.
The relevant metrics measured by this tool daily are: • Study medication • SSc-RP symptoms (Reporting an attack including duration of attack) • Severity of the attack considering all symptoms of the attack e.g. tingling, numbness, pain, color changes (VAS 0-10 cm scale) • Participant's location at the time of the attack (inside home/outside home) • Selecting symptoms experienced during the attack (tingling, numbness, pain, color changes, other) • Pain rating during the attack (11-point Likert scale) • The RCS based on how much difficulty participants had with Raynaud's today, how many attacks the participant had, and how long they lasted. Participants will also be asked to consider how much pain, numbness, or other symptoms the Raynaud's caused in fingers (including painful sores), and how much the Raynaud's alone affected the use of hands today (VAS 0-10 cm scale).
Percent change from baseline evaluation for frequency of weekly RP attacks were or will be used as the primary efficacy variable. The sponsor-developed participant-informed diary will be used to record data. Frequency of weekly RP attacks is defined as the total number of RP attacks divided by the number of days with available diary data within the last 7 days of each dosing period then multiplied by 7. Total number of RP attacks during the last 7 days of screening period divided by the number of days with available data then multiplied by 7 will be used as baseline for the analysis of all periods.
Percentage change={(weekly RP attacks for the last 7 days of each dosing period−Baseline weekly RP attacks)/Baseline weekly RP attacks}*100%.
Absolute change=weekly RP attacks for the last 7 days of each dosing period−Baseline weekly RP attacks
Percent change from baseline evaluation for frequency of weekly RP attacks was and will be the primary efficacy endpoint. Frequency of weekly RP attacks is defined as the total number of RP attacks divided by the number of days with available diary data within the last 7 days of each dosing period then multiplied by 7. Total number of RP attacks during the last 7 days of screening period divided by the number of days with available data then multiplied by 7 will be used as baseline for the analysis of all periods.
The following data was actually obtained in accordance with the protocol and plan delineated in Examples 1 and 2. The accompanying data involved 11 patients out of the planned 76 patient study. The study was done in patients with scleroderma (systemic sclerosis) who had relatively frequent Raynaud symptoms as they needed to average at least one attack per day during a screening period of up to two weeks. In this first phase of this double-blind placebo-controlled, prospective randomized study, patients were treated in parallel and after meeting study criteria were randomized to receive either placebo, cilnidipine 10 mg daily, cilnidipine 20 mg daily, tadalafil 5 mg daily, cilnidipine 10 mg plus 5 mg of tadalafil, or cilnidipine 20 mg plus 5 mg of tadalafil.
Results: Patients in the study were administered the Scleroderma Health Assessment Questionnaire (SHAQ) at the time of study entry and during clinic visits following the treatment period. […]

participants with SSc-RP [3] = assay: SHAQ Visual Analog Scale - Breathing Problems; type: in vivo, human; set-up: Visual Analog Scale-Breathing Problems, Baseline, Mean / Visual Analog Scale-Breathing Problems, Baseline, Median / Visual Analog Scale-Breathing Problems, In Clinic Visit (Day 12), Mean / Visual Analog Scale-Breathing Problems, In Clinic Visit (Day 12), Median / Visual Analog Scale-Breathing Problems, Change from Baseline, Mean / Visual Analog Scale-Breathing Problems, Change from Baseline, Median: scale not given here; conditions: for % improvement in Breathing (median): mITT
Experimental: Results: Patients in the study were administered the Scleroderma Health Assessment Questionnaire (SHAQ) at the time of study entry and during clinic visits following the treatment period. The study is a two-part, parallel arm design, prospective, double-blind, randomized study conducted in Australia (Flinders Medical Center). 27 patients were randomized into the first phase of the study, following which a DSMB meeting was held, which reviewed data on the primary study endpoint and key Raynaud's secondary endpoints. Data on the SHAQ was not available for the DSMB to review. The mITT population, in which any data was available post treatment was 24 patients was the analysis population for this first part of the study. The second part (i.e., part B) of the study will randomize 36 patients in a double blind, randomized, prospective, placebo controlled, crossover study. In the first part (i.e., Part A) of the study for which data is presented, patients were randomized into 6 groups, cilnidipine at two doses (10 and 20 mg) alone and in combination with tadalafil 5 mg, tadalafil 5 mg alone, and placebo. […] The DSMB recommended that the study proceed into its double blind prospective cross overpowered second phase and compare cilnidipine 20 mg alone to placebo. […] Cilnidipine treatment may reduce patient-reported SSc disease disability compared to placebo • b. Cilnidipine treatment may reduce patient-reported SSc disease alternative disability compared to placebo • c. Cilnidipine treatment may reduce patient-reported SSc disease pain* compared to placebo • d. Cilnidipine treatment may reduce patient-reported SSc disease severity compared to placebo • e. Cilnidipine treatment may reduce patient-reported SSc disease skin ulcer severity rating compared to placebo • f Cilnidipine treatment may reduce patient-reported SSc disease breathing difficulty compared to placebo • g. […] SSc disease pain comprises not only pain from Raynaud's but joint pain, headache, odynophagia, back pain, pain from skin ulceration, and neuropathic pain). Table E includes results of the Scleroderma Health Assessment Questionnaire.

[4] = Table A-5, ITT Part A, last 7 days of dosing vs last 7 days of screening
[5] = Tadalafil 5 mg, Modified ITT, Part A
[6] = Table A-5, ITT Part A, listed as Cilnidipine 10 mg
[7] = Table A-5, ITT Part A, listed as Cilnidipine 20 mg
[8] = Table A-5, ITT Part A, listed as Pooled Cilnidipine
[9] = Table A-5, ITT Part A, last 7 days of dosing vs last 7 days of screening, listed as Cilnidipine 10 mg
[10] = Table A-5, ITT Part A, last 7 days of dosing vs last 7 days of screening, listed as Cilnidipine 20 mg

In the case of `CN1CC(=O)N2[C@H](c3ccc4c(c3)OCO4)c3[nH]c4ccccc4c3C[C@@H]2C1=O` [Tadalafil], the “time to achieve maximal plasma concentrations (Tmax)” value [1] is listed as 2 h, the “Weekly RP Attacks (All Attacks), Max” value (participants with SSc-RP [2]; Table A-5, ITT Part A) is listed as 19.0 and the “Weekly RP Attacks (All Attacks), Min” value (participants with SSc-RP [2]; Table A-5, ITT Part A) is listed as 7.0,. For the same compound, the “Weekly RP Attacks (All Attacks), Q1” value (participants with SSc-RP [2]; Table A-5, ITT Part A) was 7.00,, the “Weekly RP Attacks (All Attacks), Q3” value (participants with SSc-RP [2]; Table A-5, ITT Part A) was 19.00 and the “Weekly RP Attacks (All Attacks) Change from Baseline, Max” value (participants with SSc-RP [2]; [4]) was 6.0. For the same compound, the “Weekly RP Attacks (All Attacks) Change from Baseline, Min” value (participants with SSc-RP [2]; [4]) was 0.0,, the “Weekly RP Attacks (All Attacks) Change from Baseline, Q1” value (participants with SSc-RP [2]; [4]) was 0.00, and the “Weekly RP Attacks (All Attacks) Change from Baseline, Q3” value (participants with SSc-RP [2]; [4]) was 6.00. The “Weekly RP Attacks (All Attacks) Percent Change from Baseline, Min” value (participants with SSc-RP [2]; [4]) was 0.0, %, the “Weekly RP Attacks (All Attacks) Percent Change from Baseline, Q1” value (participants with SSc-RP [2]; [4]) was 0.00, % and the “Visual Analog Scale-Breathing Problems, Baseline, Mean” value (participants with SSc-RP [3]; [5]) was 1.025. The “Visual Analog Scale-Breathing Problems, Baseline, Median” value (participants with SSc-RP [3]; [5]) was 0.450, the “Visual Analog Scale-Breathing Problems, Change from Baseline, Mean” value (participants with SSc-RP [3]; [5]) was 0.925 and the “Visual Analog Scale-Breathing Problems, Change from Baseline, Median” value (participants with SSc-RP [3]; [5]) was 0.300. The “Visual Analog Scale-Breathing Problems, In Clinic Visit (Day 12), Mean” value (participants with SSc-RP [3]; [5]) was 1.950, the “Visual Analog Scale-Breathing Problems, In Clinic Visit (Day 12), Median” value (participants with SSc-RP [3]; [5]) was 0.450 and the “Visual Analog Scale-Breathing Problems, Percent Change from Baseline, Mean” value (participants with SSc-RP [3]; [5]) was 213.54%. For the same compound, the “Visual Analog Scale-Breathing Problems, Percent Change from Baseline, Median” value (participants with SSc-RP [3]; [5]) was 115.63%.
For `COCCOC(=O)C1=C(C)NC(C)=C(C(=O)OC/C=C/c2ccccc2)C1c1cccc([N+](=O)[O-])c1` (centres unmarked) [Cilnidipine, 1,4-dihydro-2,6-dimethyl,4-(3-nitrophenyl)-3,5-pyridinedicarboxylic acid 2-methoxyethyl (2 E)-3-phenyl-2-propenyl ester], the “time to achieve maximal plasma concentrations (Tmax)” value [1] is listed as “about 2 hours”, the “Efficacy Seen: overall response” value (participants with SSc-RP [2]; 20 mg dose group) is listed as “shows best overall” and the “effect on Raynaud's endpoints (DSMB review)” value (participants with SSc-RP [2]; Example 4, Part A, both doses (10 and 20 mg)) is listed as “effective at reducing Raynaud's endpoints”. The “Weekly RP Attacks (All Attacks) Percent Change from Baseline, Median” value (participants with SSc-RP [2]; Pooled Cilnidipine 20 mg and Cilnidipine 20 mg + Tadalafil 5 mg, excluding outliers, baseline RCS subgroup not named, upper half of table, ITT Part A) was −45.00%, the “Weekly RP Attacks (All Attacks), Median” value (participants with SSc-RP [2]; Pooled Cilnidipine, excluding outliers, baseline RCS subgroup not named, upper half of table, ITT Part A) was 11.00 and the “Weekly RP Attacks (All Attacks), Max” value (participants with SSc-RP [2]; [6]) was 23.0. For the same compound, the “Weekly RP Attacks (All Attacks), Min” value (participants with SSc-RP [2]; [6]) was 23.0,, the “Weekly RP Attacks (All Attacks), Q1” value (participants with SSc-RP [2]; [6]) was 23.00, and the “Weekly RP Attacks (All Attacks), Q3” value (participants with SSc-RP [2]; [6]) was 23.00. For the same compound, the “Weekly RP Attacks (All Attacks), Max” value (participants with SSc-RP [2]; [7]) was 11.0, the “Weekly RP Attacks (All Attacks), Min” value (participants with SSc-RP [2]; [7]) was 5.0, and the “Weekly RP Attacks (All Attacks), Q1” value (participants with SSc-RP [2]; [7]) was 5.00,. For the same compound, the “Weekly RP Attacks (All Attacks), Q3” value (participants with SSc-RP [2]; [7]) was 11.00, the “Weekly RP Attacks (All Attacks), Max” value (participants with SSc-RP [2]; [8]) was 23.0 and the “Weekly RP Attacks (All Attacks), Min” value (participants with SSc-RP [2]; [8]) was 5.0,. For the same compound, the “Weekly RP Attacks (All Attacks), Q1” value (participants with SSc-RP [2]; [8]) was 5.00,, the “Weekly RP Attacks (All Attacks), Q3” value (participants with SSc-RP [2]; [8]) was 23.00 and the “Weekly RP Attacks (All Attacks) Change from Baseline, Min” value (participants with SSc-RP [2]; [4]) was −9.0,. For the same compound, the “Weekly RP Attacks (All Attacks) Change from Baseline, Q1” value (participants with SSc-RP [2]; [4]) was −9.00,, the “Weekly RP Attacks (All Attacks) Change from Baseline, Max” value (participants with SSc-RP [2]; [9]) was −9.0 and the “Weekly RP Attacks (All Attacks) Change from Baseline, Q3” value (participants with SSc-RP [2]; [9]) was −9.00. The “Weekly RP Attacks (All Attacks) Change from Baseline, Max” value (participants with SSc-RP [2]; [10]) was −4.3, the “Weekly RP Attacks (All Attacks) Percent Change from Baseline, Max” value (participants with SSc-RP [2]; [10]) was −45.0% and the “Weekly RP Attacks (All Attacks) Percent Change from Baseline, Q3” value (participants with SSc-RP [2]; [10]) was −45.00%. The “Weekly RP Attacks (All Attacks) Change from Baseline, Max” value (participants with SSc-RP [2]; Table A-5, ITT Part A, last 7 days of dosing vs last 7 days of screening, listed as Pooled Cilnidipine) was −4.3, the “Visual Analog Scale-Breathing Problems, Baseline, Median” value (participants with SSc-RP [3]; Cilnidipine 10 mg, Modified ITT, Part A) was 0.000 and the “% improvement in Breathing (median)” value (participants with SSc-RP [3]; Cilnidipine 20 mg (n = 3), SHAQ) was 67% (median). The “VAS - Breathing problems, Baseline on a 0-10 VAS” value (participants with SSc-RP [3]; Cilnidipine 20 mg (n = 3), last footnote) was “**Baseline was 1.13 on a 0-10 VAS”, the “Visual Analog Scale-Breathing Problems, Baseline, Median” value (participants with SSc-RP [3]; Cilnidipine 20 mg, Modified ITT, Part A) was 1.200 and the “patient-reported SSc disease breathing difficulty compared to placebo” value (participants with SSc-RP [3]; Example 4, SHAQ, mITT Part A) was “may reduce”. For the same compound, the “% improvement in Breathing (median)” value (participants with SSc-RP [3]; Pooled Cilnidipine (n = 7), SHAQ) was 41% (median).
